Source: PMC6106730, “The hemicellulose-degrading enzyme system of the thermophilic bacterium Clostridium stercorarium: comparative characterisation and addition of new hemicellulolytic glycoside hydrolases” (Biotechnology for Biofuels, 2018)

Columns and labels:
Xyn10D = target: T1, Xyn10D (Thermoclostridium stercorarium, UniProt L7VM99); assay: HPAEC-PAD of hydrolysis products; type: biochemical; conditions: 20 mg/L oligosaccharide, 2 mg/L enzyme, overnight, 60 °C, pH 6.5
T1 construct: gene Cst_c07550; no signal peptide predicted; C-terminal His6 tag, pET-24c(+), E. coli BL21 Star; IMAC and heat step
T1 sequence (L7VM99 entry or part of it): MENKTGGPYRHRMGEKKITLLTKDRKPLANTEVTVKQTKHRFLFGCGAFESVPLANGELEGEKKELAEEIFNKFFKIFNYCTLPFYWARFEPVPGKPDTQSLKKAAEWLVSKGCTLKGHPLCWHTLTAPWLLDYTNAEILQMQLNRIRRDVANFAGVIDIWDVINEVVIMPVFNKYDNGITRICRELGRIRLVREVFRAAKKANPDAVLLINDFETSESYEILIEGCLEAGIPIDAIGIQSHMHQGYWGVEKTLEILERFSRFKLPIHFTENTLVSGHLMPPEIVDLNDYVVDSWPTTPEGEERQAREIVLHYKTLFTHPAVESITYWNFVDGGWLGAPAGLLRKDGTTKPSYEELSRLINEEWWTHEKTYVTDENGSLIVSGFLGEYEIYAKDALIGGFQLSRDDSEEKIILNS

Xyn105F = target: T2, Xyn105F (Thermoclostridium stercorarium, UniProt L7VMZ8); assay: HPAEC-PAD of hydrolysis products; type: biochemical; conditions: 20 mg/L oligosaccharide, 2 mg/L enzyme, overnight, 60 °C, pH 6.5
T2 construct: gene Cst_c10410; no signal peptide predicted; C-terminal His6 tag, pET-24c(+), E. coli BL21 Star; IMAC and heat step
T2 sequence (L7VMZ8 entry or part of it): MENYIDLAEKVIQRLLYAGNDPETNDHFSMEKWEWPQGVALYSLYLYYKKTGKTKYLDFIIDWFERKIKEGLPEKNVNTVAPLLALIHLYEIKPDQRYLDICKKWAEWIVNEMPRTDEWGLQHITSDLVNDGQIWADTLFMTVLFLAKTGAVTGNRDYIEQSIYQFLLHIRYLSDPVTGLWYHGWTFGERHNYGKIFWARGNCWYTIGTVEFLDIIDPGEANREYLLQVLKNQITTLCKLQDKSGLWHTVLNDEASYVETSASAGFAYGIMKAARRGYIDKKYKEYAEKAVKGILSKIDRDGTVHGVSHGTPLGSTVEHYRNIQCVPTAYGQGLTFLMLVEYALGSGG

Structure (SMILES): OC1OC[C@@H](O[C@@H]2OC[C@@H](O[C@@H]3OC[C@@H](O[C@@H]4OC[C@@H](O[C@@H]5OC[C@@H](O)[C@H](O)[C@H]5O)[C@H](O)[C@H]4O)[C@H](O)[C@H]3O)[C@H](O)[C@H]2O)[C@H](O)[C@H]1O (some centres unmarked) [X5, xylopentaose]
- HPAEC-PAD of hydrolysis products (Xyn10D): All five xylanases degraded xylopentaose first to xylotriose and xylobiose
- HPAEC-PAD of hydrolysis products (Xyn105F): Xyn105F was also active on xylopentaose, releasing xylose and xylobiose
